Where two headings read alike, the source gives them in different places.
Key:
[1] = molecular target: PI3K-γ (Homo sapiens, UniProt P48736); assay: PI3K-gamma fluorescence polarization assay; settings: read-out: IC50 PI3Kγ
[2] = molecular target: Human mTOR (FLAG-TOR) (Homo sapiens, UniProt P42345); assay: mTOR kinase assay (DELFIA format, purified enzyme); assay type: biochemical; settings: read-out: IC50 mTOR
[3] = molecular target: PI3K-α (Homo sapiens, UniProt P42336); assay: PI3K-alpha fluorescence polarization assay; settings: read-out: IC50 PI3Kα
Sequence of PI3K-α (P42336 whole entry, species assumed): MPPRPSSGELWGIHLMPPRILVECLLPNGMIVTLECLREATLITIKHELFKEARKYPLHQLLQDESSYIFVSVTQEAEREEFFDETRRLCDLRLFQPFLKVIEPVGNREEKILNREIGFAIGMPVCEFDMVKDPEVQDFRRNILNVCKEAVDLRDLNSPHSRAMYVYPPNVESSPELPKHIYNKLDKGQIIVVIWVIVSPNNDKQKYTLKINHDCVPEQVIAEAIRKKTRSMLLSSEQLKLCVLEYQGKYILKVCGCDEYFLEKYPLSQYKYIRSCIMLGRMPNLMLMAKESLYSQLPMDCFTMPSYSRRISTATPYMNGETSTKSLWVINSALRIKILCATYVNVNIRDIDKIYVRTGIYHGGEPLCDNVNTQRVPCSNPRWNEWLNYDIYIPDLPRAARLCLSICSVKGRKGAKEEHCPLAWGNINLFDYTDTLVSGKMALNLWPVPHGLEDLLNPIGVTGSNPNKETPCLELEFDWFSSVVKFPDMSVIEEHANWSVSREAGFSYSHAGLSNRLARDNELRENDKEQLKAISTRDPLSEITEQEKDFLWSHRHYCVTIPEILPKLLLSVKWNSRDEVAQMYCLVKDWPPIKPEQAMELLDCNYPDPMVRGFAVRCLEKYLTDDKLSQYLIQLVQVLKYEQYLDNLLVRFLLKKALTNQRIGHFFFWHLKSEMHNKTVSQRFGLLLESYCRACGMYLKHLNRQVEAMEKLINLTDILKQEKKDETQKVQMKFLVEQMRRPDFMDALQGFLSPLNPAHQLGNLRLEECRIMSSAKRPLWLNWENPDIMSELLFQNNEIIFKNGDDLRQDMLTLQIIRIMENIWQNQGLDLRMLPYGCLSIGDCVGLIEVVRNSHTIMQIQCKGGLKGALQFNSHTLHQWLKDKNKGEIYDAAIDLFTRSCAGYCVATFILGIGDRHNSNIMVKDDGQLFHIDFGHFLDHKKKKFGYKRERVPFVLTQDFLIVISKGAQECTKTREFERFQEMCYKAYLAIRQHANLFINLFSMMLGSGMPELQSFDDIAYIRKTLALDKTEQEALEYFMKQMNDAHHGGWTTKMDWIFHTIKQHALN
Sequence of PI3K-α (P27986 whole entry partner, species assumed): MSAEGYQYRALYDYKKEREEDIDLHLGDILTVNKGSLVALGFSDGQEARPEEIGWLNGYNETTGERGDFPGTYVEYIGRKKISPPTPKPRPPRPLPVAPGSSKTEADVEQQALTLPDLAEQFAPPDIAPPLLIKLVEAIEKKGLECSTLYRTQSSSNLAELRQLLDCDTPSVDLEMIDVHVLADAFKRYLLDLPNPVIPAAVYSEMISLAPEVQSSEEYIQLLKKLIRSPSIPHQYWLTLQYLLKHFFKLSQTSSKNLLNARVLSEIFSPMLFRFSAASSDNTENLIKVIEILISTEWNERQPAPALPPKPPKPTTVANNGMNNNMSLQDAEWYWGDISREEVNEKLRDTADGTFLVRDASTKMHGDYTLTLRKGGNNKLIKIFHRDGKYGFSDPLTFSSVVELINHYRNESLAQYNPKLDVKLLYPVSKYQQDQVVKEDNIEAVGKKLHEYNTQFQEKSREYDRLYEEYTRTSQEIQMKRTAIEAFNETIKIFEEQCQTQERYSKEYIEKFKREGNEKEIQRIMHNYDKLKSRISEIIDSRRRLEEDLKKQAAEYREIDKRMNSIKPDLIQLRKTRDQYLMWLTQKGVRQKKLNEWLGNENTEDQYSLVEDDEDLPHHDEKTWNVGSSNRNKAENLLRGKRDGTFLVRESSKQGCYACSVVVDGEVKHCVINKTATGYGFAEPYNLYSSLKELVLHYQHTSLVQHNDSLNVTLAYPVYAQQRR

[4] = tested on: human prostate LNCap tumor cell line; assay: In vitro cell culture growth assay (MTS), LNCap; settings: read-out: IC50 LNCap
[5] = MTS cell growth assay, three days after drug treatment

Sequence of Human mTOR (FLAG-TOR) (P42345 1360-2549 limits assumed): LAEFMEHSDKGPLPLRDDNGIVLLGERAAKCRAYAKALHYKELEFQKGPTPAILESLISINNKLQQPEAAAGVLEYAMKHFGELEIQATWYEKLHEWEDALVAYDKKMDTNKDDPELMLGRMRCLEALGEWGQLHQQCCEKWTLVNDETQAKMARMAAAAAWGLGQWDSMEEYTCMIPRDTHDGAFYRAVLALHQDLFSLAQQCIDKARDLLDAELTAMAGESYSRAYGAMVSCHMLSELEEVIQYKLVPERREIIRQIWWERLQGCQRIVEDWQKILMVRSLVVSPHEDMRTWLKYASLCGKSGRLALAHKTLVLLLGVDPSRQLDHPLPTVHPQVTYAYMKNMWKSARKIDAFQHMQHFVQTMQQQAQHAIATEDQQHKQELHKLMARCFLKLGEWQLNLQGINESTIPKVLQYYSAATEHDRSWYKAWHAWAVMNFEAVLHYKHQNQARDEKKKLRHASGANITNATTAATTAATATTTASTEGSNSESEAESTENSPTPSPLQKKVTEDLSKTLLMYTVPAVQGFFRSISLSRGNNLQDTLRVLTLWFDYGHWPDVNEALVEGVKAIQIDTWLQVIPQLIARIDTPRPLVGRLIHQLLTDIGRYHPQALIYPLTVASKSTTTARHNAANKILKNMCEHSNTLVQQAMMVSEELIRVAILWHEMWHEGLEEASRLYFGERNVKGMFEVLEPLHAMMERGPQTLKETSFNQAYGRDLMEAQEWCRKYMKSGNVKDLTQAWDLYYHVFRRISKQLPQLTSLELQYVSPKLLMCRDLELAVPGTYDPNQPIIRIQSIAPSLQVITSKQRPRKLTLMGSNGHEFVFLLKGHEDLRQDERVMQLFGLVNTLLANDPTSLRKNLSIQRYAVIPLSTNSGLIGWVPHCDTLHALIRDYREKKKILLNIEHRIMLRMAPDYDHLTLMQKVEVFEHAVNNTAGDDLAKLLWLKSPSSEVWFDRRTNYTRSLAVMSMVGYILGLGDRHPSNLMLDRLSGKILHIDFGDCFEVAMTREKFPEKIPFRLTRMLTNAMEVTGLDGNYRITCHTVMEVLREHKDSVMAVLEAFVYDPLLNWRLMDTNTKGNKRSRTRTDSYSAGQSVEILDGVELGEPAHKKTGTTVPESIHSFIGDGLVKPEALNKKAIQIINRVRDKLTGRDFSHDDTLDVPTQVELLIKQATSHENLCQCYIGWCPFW
Sequence of PI3K-γ (P48736 whole entry, species assumed): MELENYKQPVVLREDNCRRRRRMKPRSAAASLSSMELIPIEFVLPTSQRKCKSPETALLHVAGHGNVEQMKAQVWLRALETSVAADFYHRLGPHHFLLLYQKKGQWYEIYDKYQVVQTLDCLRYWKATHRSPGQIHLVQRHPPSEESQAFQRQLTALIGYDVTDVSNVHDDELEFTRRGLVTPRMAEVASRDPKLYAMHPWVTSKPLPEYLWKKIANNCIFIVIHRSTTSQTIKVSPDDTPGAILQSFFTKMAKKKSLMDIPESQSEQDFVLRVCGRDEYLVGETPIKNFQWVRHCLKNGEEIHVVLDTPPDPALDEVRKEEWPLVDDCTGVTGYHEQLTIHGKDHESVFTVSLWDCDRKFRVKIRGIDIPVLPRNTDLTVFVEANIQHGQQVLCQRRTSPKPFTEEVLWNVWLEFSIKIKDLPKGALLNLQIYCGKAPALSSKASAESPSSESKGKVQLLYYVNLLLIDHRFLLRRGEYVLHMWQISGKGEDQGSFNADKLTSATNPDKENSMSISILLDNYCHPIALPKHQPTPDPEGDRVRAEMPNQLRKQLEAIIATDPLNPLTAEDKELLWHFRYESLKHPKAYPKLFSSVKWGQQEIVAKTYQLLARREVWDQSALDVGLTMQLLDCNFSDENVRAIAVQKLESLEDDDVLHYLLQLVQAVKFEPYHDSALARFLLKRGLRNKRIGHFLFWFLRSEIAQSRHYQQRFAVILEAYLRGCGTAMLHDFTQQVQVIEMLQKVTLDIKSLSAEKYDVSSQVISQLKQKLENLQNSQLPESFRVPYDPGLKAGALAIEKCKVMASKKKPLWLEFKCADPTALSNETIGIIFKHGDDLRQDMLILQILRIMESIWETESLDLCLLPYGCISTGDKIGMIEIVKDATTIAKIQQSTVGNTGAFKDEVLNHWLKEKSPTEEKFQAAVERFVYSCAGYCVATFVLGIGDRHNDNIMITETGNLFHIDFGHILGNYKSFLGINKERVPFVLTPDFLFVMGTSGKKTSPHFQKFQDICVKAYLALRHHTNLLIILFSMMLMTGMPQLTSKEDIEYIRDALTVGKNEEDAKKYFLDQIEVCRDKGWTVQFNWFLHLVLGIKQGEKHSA

Molecule | IC50 [1] | IC50 [2] | IC50 [3] | IC50 ([4]; Homo sapiens, LNCaP, 72 h) | IC50 [4, 5] | IC50 ([1]; listed as 354) | IC50 ([3]; listed as 354)
O=C(Nc1ccc(-c2nc(NC3CNC3)nc(N3CC4CCC(C3)O4)n2)cc1)Nc1cccnc1 [Example 154, 1-{4-[4-(azetidin-3-ylamino)-6-(8-oxa-3-azabicyclo[3.2.1]oct-3-yl)-1,3,5-triazin-2-yl]phenyl}-3-pyridin-3-ylurea] | 3820 nM | 64 nM | 275 nM | 22000 nM |  |  | 
CN(C)CCNC1CCN(c2nc(-c3ccc(NC(=O)Nc4ccncc4)cc3)nc(N3CC4CCC(C3)O4)n2)CC1 [Example 120, 1-{4-[4-(4-{[2-(dimethylamino)ethyl]amino}piperidin-1-yl)-6-(8-oxa-3-azabicyclo[3.2.1]oct-3-yl)-1,3,5-triazin-2-yl]phenyl}-3-pyridin-4-ylurea] | 1550 nM | 79 nM | 262 nM | 1200 nM |  |  | 
O=C(Nc1ccc(-c2nc(N3C[C@@H]4C[C@H]3CO4)nc(N3C[C@@H]4C[C@H]3CO4)n2)cc1)Nc1ccc(N2CCNCC2)cc1 [Example 313, 1-{4-[4,6-di-(1S,4S)-2-oxa-5-azabicyclo[2.2.1]hept-5-yl-1,3,5-triazin-2-yl]phenyl}-3-(4-piperazin-1-ylphenyl)urea] | 7490 nM | 37 nM | 1730 nM |  | 100 nM |  | 
O=C(NCCO)Nc1ccc(-c2nc(Nc3ccc(N4CCNCC4)cc3)nc(N3CC4CCC(C3)O4)n2)cc1 [Example 328, 1-(2-hydroxyethyl)-3-(4-{4-(8-oxa-3-azabicyclo[3.2.1]oct-3-yl)-6-[(4-piperazin-1-ylphenyl)amino]-1,3,5-triazin-2-yl}phenyl)urea] | 14000 nM | 4.6 nM | 261 nM | 1500 nM |  |  | 
CC(C)c1nc(-c2ccc(NC(=O)Nc3ccc(-c4ccncc4)cc3)cc2)nc(N2CCOCC2)n1 [Example 489, 1-{4-[4-(1-methylethyl)-6-morpholin-4-yl-1,3,5-triazin-2-yl]phenyl}-3-(4-pyridin-4-ylphenyl)urea] | 9040 nM | 2.2 nM | 3670 nM | 4300 nM |  |  | 
CNC(=O)Nc1ccc(-c2nc(Nc3ccc(N4CCNCC4)cc3)nc(N3CC4CCC(C3)O4)n2)cc1 [Example 325, 1-methyl-3-(4-{4-(8-oxa-3-azabicyclo[3.2.1]oct-3-yl)-6-[(4-piperazin-1-ylphenyl)amino]-1,3,5-triazin-2-yl}phenyl)urea] | 6240 nM | 4.6 nM | 74 nM | 310 nM |  | 6220 nM | 69 nM
O=C(Nc1ccc(-c2nc(NCCC3CCNCC3)nc(N3CC4CCC(C3)O4)n2)cc1)Nc1cccnc1 [Example 170, 1-(4-{4-(8-oxa-3-azabicyclo[3.2.1]oct-3-yl)-6-[(2-piperidin-4-ylethyl)amino]-1,3,5-triazin-2-yl}phenyl)-3-pyridin-3-ylurea] | 9500 nM | 4 nM | 384 nM | 4500 nM |  |  | 
C[C@@H]1COCCN1c1nc(-c2ccc(NC(=O)Nc3cccnc3)cc2)nc(N2C3CCC2COC3)n1 [Example 415, 1-(4-(4-(3-oxa-8-azabicyclo[3.2.1]octan-8-yl)-6-((R)-3-methylmorpholino)-1,3,5-triazin-2-yl)phenyl)-3-(pyridin-3-yl)urea] | 3260 nM | 0.38 nM | 787 nM | 29 nM |  |  | 
CN(C)C(=O)c1ccc(NC(=O)Nc2ccc(-c3nc(C4CCOCC4)nc(N4C5CCC4COC5)n3)cc2)cc1 [Example 455, 4-(3-(4-(4-(3-oxa-8-azabicyclo[3.2.1]octan-8-yl)-6-(tetrahydro-2H-pyran-4-yl)-1,3,5-triazin-2-yl)phenyl)ureido)-N,N-dimethylbenzamide] | 1390 nM | 0.3 nM | 113 nM | < 0.8 nM |  |  | 
CN(C)c1nc(-c2ccc(NC(=O)Nc3cccnc3)cc2)nc(N2CC3CCC(C2)O3)n1 [Example 192, 1-{4-[4-(dimethylamino)-6-(8-oxa-3-azabicyclo[3.2.1]oct-3-yl)-1,3,5-triazin-2-yl]phenyl}-3-pyridin-3-ylurea] | 453 nM | 43 nM | 1120 nM | 620 nM |  |  | 
CC(C)Nc1nc(-c2ccc(NC(=O)Nc3ccc(CN4CCCC4)cc3)cc2)nc(N2C3CCC2COC3)n1 [Example 383, 1-(4-(4-(3-oxa-8-azabicyclo[3.2.1]octan-8-yl)-6-(isopropylamino)-1,3,5-triazin-2-yl)phenyl)-3-(4-(pyrrolidin-1-ylmethyl)phenyl)urea] | 3610 nM | 6.1 nM | 2980 nM | 150 nM |  |  | 
O=C(Nc1ccc(-c2nc(OCC3CCCNC3)nc(N3CC4CCC(C3)O4)n2)cc1)Nc1cccnc1 (stereo not shown) [Example 180, 1-{4-[4-(8-oxa-3-azabicyclo[3.2.1]oct-3-yl)-6-(piperidin-3-ylmethoxy)-1,3,5-triazin-2-yl]phenyl}-3-pyridin-3-ylurea] | 8000 nM | 1.6 nM | 531 nM | 5800 nM |  |  | 
CN1CCN(CC(=O)Nc2ccc(NC(=O)Nc3ccc(-c4nc(N5C6CCC5COC6)nc(N5C6CCC5COC6)n4)cc3)cc2)CC1 [Example 374, N-(4-(3-(4-(4,6-di(3-oxa-8-azabicyclo[3.2.1]octan-8-yl)-1,3,5-triazin-2-yl)phenyl)ureido)phenyl)-2-(4-methylpiperazin-1-yl)acetamide] | 3920 nM | 0.14 nM | 64 nM | < 0.8 nM |  |  | 
NC(=O)c1ccc(NC(=O)Nc2ccc(-c3nc(C4CCOCC4)nc(N4C5CCC4COC5)n3)cc2)cc1 [Example 454, 4-(3-(4-(4-(3-oxa-8-azabicyclo[3.2.1]octan-8-yl)-6-(tetrahydro-2H-pyran-4-yl)-1,3,5-triazin-2-yl)phenyl)ureido)benzamide] | 1490 nM | 0.2 nM | 278 nM | < 0.8 nM |  |  | 
CC(C)Nc1nc(-c2ccc(NC(=O)Nc3ccc(CN(C)C)cc3)cc2)nc(N2C3CCC2COC3)n1 [Example 381, 1-(4-(4-(3-oxa-8-azabicyclo[3.2.1]octan-8-yl)-6-(isopropylamino)-1,3,5-triazin-2-yl)phenyl)-3-(4-((dimethylamino)methyl)phenyl)urea] | 5400 nM | 5.9 nM | 2960 nM | 140 nM |  |  | 
C[C@@H]1COCCN1c1nc(-c2ccc(NC(=O)Nc3ccc(N4CCNCC4)cc3)cc2)nc(C2CCOCC2)n1 [Example 422, (R)-1-(4-(4-(3-methylmorpholino)-6-(tetrahydro-2H-pyran-4-yl)-1,3,5-triazin-2-yl)phenyl)-3-(4-(piperazin-1-yl)phenyl)urea] | 1220 nM | 0.79 nM | 269 nM | 2 nM |  |  | 
1-{4-[4-(4-morpholin-4-ylpiperidin-1-yl)-6-(8-oxa-3-azabicyclo[3.2.1]oct-3-yl)-1,3,5-triazin-2-yl]phenyl}-3-pyridin-4-ylurea [Example 121] | 4000 nM | 43.5 nM | 1850 nM |  | 1000 nM |  | 
CCN1CCN(c2ccc(NC(=O)Nc3ccc(-c4nc(N5CCOC[C@H]5C)nc(N5CCOC[C@H]5C)n4)cc3)cc2)CC1 [Example 447, 1-(4-(4,6-bis((R)-3-methylmorpholino)-1,3,5-triazin-2-yl)phenyl)-3-(4-(4-ethylpiperazin-1-yl)phenyl)urea] | 2800 nM | 1.9 nM | 390 nM | 8 nM |  |  | 
O=C(Nc1ccc(CN2CCNCC2)cc1)Nc1ccc(-c2nc(N3C4CCC3COC4)nc(N3C4CCC3COC4)n2)cc1 [Example 366, 1-(4-(4,6-di(3-oxa-8-azabicyclo[3.2.1]octan-8-yl)-1,3,5-triazin-2-yl)phenyl)-3-(4-(piperazin-1-ylmethyl)phenyl)urea] | 3000 nM | 1.1 nM | 585 nM | 2.8 nM |  |  | 
C[C@@H](CO)Nc1nc(-c2ccc(NC(=O)Nc3cccnc3)cc2)nc(N2CC3CCC(C2)O3)n1 [Example 259, 1-{4-[4-{[(1S)-2-hydroxy-1-methylethyl]amino}-6-(8-oxa-3-azabicyclo[3.2.1]oct-3-yl)-1,3,5-triazin-2-yl]phenyl}-3-pyridin-3-ylurea] | 5410 nM | 2.4 nM | 408 nM | 580 nM |  |  | 
CNCCNC(=O)c1ccc(NC(=O)Nc2ccc(-c3nc(C4CCOCC4)nc(N4C5CCC4COC5)n3)cc2)cc1 [Example 458, 4-(3-(4-(4-(3-oxa-8-azabicyclo[3.2.1]octan-8-yl)-6-(tetrahydro-2H-pyran-4-yl)-1,3,5-triazin-2-yl)phenyl)ureido)-N-(2-(methylamino)ethyl)benzamide] | 512 nM | 0.2 nM | 33 nM | 8 nM |  |  | 
CC(C)Nc1nc(-c2ccc(NC(=O)Nc3ccc(OCCN(C)C)cc3)cc2)nc(N2C3CCC2COC3)n1 [Example 385, 1-(4-(4-(3-oxa-8-azabicyclo[3.2.1]octan-8-yl)-6-(isopropylamino)-1,3,5-triazin-2-yl)phenyl)-3-(4-(2-(dimethylamino)ethoxy)phenyl)urea] | 4690 nM | 5.7 nM | 3400 nM | 70 nM |  |  | 
O=C(Nc1ccc(-c2nc(NCCN3CCOCC3)nc(N3CC4CCC(C3)O4)n2)cc1)Nc1cccnc1 [Example 155, 1-(4-{4-[(2-morpholin-4-ylethyl)amino]-6-(8-oxa-3-azabicyclo[3.2.1]oct-3-yl)-1,3,5-triazin-2-yl}phenyl)-3-pyridin-3-ylurea] | 4940 nM | 16 nM | 2300 nM | 400 nM |  |  | 

Source: US20090304692A1, “TRIAZINE COMPOUNDS AS PI3 KINASE AND MTOR INHIBITORS” (Wyeth, priority 2008, published 2009)
